Values quoted from earlier work as cited in patent US6365180B1, “Oral liquid compositions” (priority 1998, dated 2002).

Details: enteric coated tablet versus aqueous solution

For `O=C(O)Cc1ccccc1Nc1c(Cl)cccc1Cl` [sodium diclofenac], the oral bioavailability is listed as “more orally bioavailable from an enteric coated tablet than from an aqueous solution”.
